The values below come from article PMC6334293 (Journal of medicinal chemistry, 2018).

One assay concerns the target BCL6^BTB LG. Particulars: read-out: KD (MST); microscale thermophoresis; cited from earlier work. For orientation: MST reads how a fluorescent partner responds to local heating, with and without ligand.
Assay [1] has as its target T1, BCL6^BTB (Homo sapiens, UniProt P41182, C67R/C84N/E99V).
Assay [2] has as its system BCL6-dependent and BCL6-independent lymphoma cells. The experiment in a line: Differential cell killing assays, panel statements. The format is cell-based, human.
In a further assay the test system is Ly1B50. The experiment in a line: Growth inhibition. In kind it is cell-based. Particulars: Homo sapiens, 48 h, read-out: GI50 BCL6 independent cell Ly1B50.
Another assay has as its system SUDHL6. The assay can be described thus: Growth inhibition. In kind it is cell-based, human.
In a further assay the test system is OCI-Ly7. The assay can be described thus: Growth inhibition. In kind it is cell-based, human.
A further assay concerns the target KAISO (Homo sapiens, UniProt Q86T24). Particulars: Figure S8.
Another assay has as its target LRF (Homo sapiens, UniProt O95365). To be noted: Figure S8.
Assay [3] deals with T1, BCL6^BTB. Particulars: NMR KD.
The target in the next assay is T2, MIZ1 (Homo sapiens, UniProt Q13105).
T2 sequence (Q13105 1-115): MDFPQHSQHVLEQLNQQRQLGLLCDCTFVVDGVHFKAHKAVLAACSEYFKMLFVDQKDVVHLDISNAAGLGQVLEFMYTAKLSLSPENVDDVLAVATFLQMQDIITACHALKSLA
The assay can be described thus: Protein-observed NMR binding to MIZ1 BTB. Particulars: Figure S8.

Sequence of LRF (O95365 1-130): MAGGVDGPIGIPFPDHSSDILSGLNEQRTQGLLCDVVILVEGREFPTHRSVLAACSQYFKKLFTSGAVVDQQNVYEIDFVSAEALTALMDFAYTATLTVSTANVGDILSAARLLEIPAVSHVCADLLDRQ
Sequence of KAISO (Q86T24 1-122, species assumed): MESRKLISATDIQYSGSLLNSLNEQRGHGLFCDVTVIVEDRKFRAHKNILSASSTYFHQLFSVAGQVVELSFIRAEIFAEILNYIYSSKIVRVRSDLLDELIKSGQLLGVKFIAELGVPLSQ

For `O=C(O)CC(C(=O)O)N1C(=O)/C(=C2/C(=O)Nc3ccc(Br)cc32)SC1=S` (stereo not drawn) [79–6], the Kd at BCL6^BTB LG is 129 µM.
For the molecule `CC(C)NC(=O)Cn1ccc2ccc(NC(=S)NCCc3c[nH]c4ccccc34)cc21` [Compound 7b, 2-(6-(3-(2-(1H-Indol-3-yl)ethyl)thioureido)-1H-indol-1-yl)-N-isopropylacetamide], at BCL6^BTB [1], the “improvement of 6PA value compared to compound 7a” value came to 3.7 fold.
Take `O=C(O)CNC(=O)Cn1ccc2ccc(NC(=S)NCCc3c[nH]c4ccccc34)cc21` [Compound 7i, (2-(6-(3-(2-(1H-Indol-3-yl)ethyl)thioureido)-1H-indol-1-yl)acetyl)glycine]: the “effect on all seven lymphoma cell lines” value in [2] (at the concentration of 500 μM) is reported as “no effect”. Also, the GI50 in the assay on Ly1B50 was greater than 500 µM.
Turning to `COC(=O)Cn1cc(CN2CCN(C)CC2)c2ccc(NC(=S)NCCc3c[nH]c4ccccc34)cc21` [Compound 13, Methyl 2-(6-(3-(2-(1H-indol-3-yl)ethyl)thioureido)-3-((4-methylpiperazin-1-yl)methyl)-1H-indol-1-yl)acetate], the GI50 in the assay on Ly1B50 is greater than 500 µM. In addition, the “cellular activity, SUDHL6 cells” value in the assay on SUDHL6 is listed as “weak cellular activity”. Also, the 6PA at BCL6^BTB [1] is given as 363 Hz.
As for `CC(C)NC(=O)Cn1cc(CN2CCN(C)CC2)c2ccc(NC(=S)NCCc3c[nH]c4ccccc34)cc21` [Compound 15a, 2-(6-(3-(2-(1H-indol-3-yl)ethyl)thioureido)-3-((4-methylpiperazin-1-yl)methyl)-1H-indol-1-yl)-N-isopropylacetamide], the “effects in the cell killing assays” value in [2] is “no effects”. In the assay with Ly1B50, the GI50 was greater than 500 µM.
Consider `CN1CCN(Cc2cn(CC(=O)NCC(=O)O)c3cc(NC(=S)NCCc4c[nH]c5ccccc45)ccc23)CC1` [Compound 15c, (2-(6-(3-(2-(1H-Indol-3-yl)ethyl)thioureido)-3-((4-methylpiperazin-1-yl)methyl)-1H-indol-1-yl)acetyl)glycine], for which the “effects in the cell killing assays” value in assay [2] is reported as “no effects”. Further, the GI50 with Ly1B50 is greater than 500 µM.
As for `CCN(CC)C(=O)Cn1cc(CN2CCN(C)CC2)c2ccc(NC(=S)NCCc3c[nH]c4ccccc34)cc21` [Compound 15d, 2-(6-(3-(2-(1H-Indol-3-yl)ethyl)thioureido)-3-((4-methylpiperazin-1-yl)methyl)-1H-indol-1-yl)-N,N-diethylacetamide], on BCL6^BTB [1], the 6PA is given as 390 Hz.
With `CN1CCN(Cc2cn(CC(=O)N3CCCCC3)c3cc(NC(=S)NCCc4c[nH]c5ccccc45)ccc23)CC1` [Compound 15e, 1-(2-(1H-Indol-3-yl)ethyl)-3-(3-((4-methylpiperazin-1-yl)methyl)-1-(2-oxo-2-(piperidin-1-yl)ethyl)-1H-indol-6-yl)thiourea], the concentration for 50% growth inhibition (GI50) is 33 to 103 µM in assay [2] (Homo sapiens, read-out: GI50 for BCL6-dependent lymphoma cells) and greater than 500 µM in the assay with Ly1B50. Also, the “effect on all tested BCL6-independent lymphoma cells” value in [2] (at the concentration of 500 μM) is recorded as “no effect”.
`CN1CCN(Cc2cn(CC(=O)N3CCOCC3)c3cc(NC(=S)NCCc4c[nH]c5ccccc45)ccc23)CC1` [Compound 15f, 1-(2-(1H-Indol-3-yl)ethyl)-3-(3-((4-methylpiperazin-1-yl)methyl)-1-(2-morpholino-2-oxoethyl)-1H-indol-6-yl)thiourea]: the “cellular activity, OCI-Ly7 cells” value with OCI-Ly7 is listed as “weak potency”. Further, the “activity to other tested BCL6-dependent lymphoma cells” value in assay [2] (other than OCI-Ly7) is listed as “no obvious activity”. The “binding to KAISO BTB domain” value on KAISO is given as “no interactions”. Moreover, the GI50 in the assay on Ly1B50 is greater than 500 µM. In addition, the “binding to LRF BTB domain” value on LRF is on record as “no interactions”. Also, at BCL6^BTB [3], the “improvement of affinity over 15a” value was found to be 6 fold. Further, the “binding to MIZ1 BTB domain” value on MIZ1 is on record as “no interactions”.
For `CC1CN(C(=O)Cn2cc(CN3CCN(C)CC3)c3ccc(NC(=S)NCCc4c[nH]c5ccccc45)cc32)CCO1` (stereo not drawn) [Compound 15g, 1-(2-(1H-Indol-3-yl)ethyl)-3-(1-(2-(2-methylmorpholino)-2-oxoethyl)-3-((4-methylpiperazin-1-yl)methyl)-1H-indol-6-yl)thiourea], the “cellular activity, OCI-Ly7 cells” value with OCI-Ly7 was “only showed activity”. Also, the GI50 in the assay on Ly1B50 is greater than 500 µM.

Broadly, the Kd is the equilibrium constant for the complex coming apart. Broadly, the GI50 is the concentration that inhibits growth by half.
